What was measured:
[1] = target: T1, CcDOX2 (Coprinopsis cinerea, UniProt A8NN01); test: LC-MS/MS of products after triphenylphosphine reduction; assay type: biochemical; details: immunopurified EGFP fusion; 8-hydroperoxide product (tentative)
T1 construct: gene CC1G_09914; full length, 1118 aa, C-terminal EGFP fusion, expressed in BmN4 (Bombyx mori) cells, immunopurified with anti-GFP antibody
T1 sequence (A8NN01 1-1118): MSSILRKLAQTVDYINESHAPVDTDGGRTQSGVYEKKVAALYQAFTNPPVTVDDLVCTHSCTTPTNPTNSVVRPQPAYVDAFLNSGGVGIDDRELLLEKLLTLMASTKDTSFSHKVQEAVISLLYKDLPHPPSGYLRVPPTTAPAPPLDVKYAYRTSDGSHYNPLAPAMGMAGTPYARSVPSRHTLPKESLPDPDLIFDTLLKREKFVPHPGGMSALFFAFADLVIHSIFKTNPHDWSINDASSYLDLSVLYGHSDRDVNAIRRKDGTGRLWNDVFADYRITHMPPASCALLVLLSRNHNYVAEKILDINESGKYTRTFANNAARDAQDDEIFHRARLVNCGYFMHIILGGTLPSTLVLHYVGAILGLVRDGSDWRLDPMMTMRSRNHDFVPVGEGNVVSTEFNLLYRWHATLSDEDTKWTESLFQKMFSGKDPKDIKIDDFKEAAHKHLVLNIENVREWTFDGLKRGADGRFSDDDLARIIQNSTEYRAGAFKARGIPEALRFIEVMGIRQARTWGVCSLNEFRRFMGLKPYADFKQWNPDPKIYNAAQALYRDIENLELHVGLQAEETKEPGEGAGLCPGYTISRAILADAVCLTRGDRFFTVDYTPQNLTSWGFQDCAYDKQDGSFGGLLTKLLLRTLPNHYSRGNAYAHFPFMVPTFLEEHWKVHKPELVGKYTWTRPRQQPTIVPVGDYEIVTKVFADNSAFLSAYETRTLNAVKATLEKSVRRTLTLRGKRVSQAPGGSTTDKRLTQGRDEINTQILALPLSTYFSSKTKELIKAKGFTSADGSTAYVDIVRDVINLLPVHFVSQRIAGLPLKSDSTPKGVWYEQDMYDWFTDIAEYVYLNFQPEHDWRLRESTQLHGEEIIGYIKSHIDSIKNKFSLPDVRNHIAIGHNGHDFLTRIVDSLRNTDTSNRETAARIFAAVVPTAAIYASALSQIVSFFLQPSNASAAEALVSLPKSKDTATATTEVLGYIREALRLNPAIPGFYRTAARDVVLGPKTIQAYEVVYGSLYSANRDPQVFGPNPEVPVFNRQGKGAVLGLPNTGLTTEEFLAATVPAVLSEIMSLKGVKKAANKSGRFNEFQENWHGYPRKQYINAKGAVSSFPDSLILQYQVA

[2] = target: T2, CcDOX1 (Coprinopsis cinerea, UniProt A8N8W9); test: LC-MS/MS product peak area, Hill fit of [S]-v plot; assay type: biochemical; details: Hill coefficient n = 1.9 ± 0.27; 10-500 μM substrate, 30 min on ice; bead-bound immunopurified EGFP fusion; lysis buffer pH 7.4
T2 construct: gene CC1G_00844; full length, 1066 aa, C-terminal EGFP fusion, expressed in BmN4 (Bombyx mori) cells, immunopurified on anti-GFP beads
T2 sequence (A8N8W9 1-1066): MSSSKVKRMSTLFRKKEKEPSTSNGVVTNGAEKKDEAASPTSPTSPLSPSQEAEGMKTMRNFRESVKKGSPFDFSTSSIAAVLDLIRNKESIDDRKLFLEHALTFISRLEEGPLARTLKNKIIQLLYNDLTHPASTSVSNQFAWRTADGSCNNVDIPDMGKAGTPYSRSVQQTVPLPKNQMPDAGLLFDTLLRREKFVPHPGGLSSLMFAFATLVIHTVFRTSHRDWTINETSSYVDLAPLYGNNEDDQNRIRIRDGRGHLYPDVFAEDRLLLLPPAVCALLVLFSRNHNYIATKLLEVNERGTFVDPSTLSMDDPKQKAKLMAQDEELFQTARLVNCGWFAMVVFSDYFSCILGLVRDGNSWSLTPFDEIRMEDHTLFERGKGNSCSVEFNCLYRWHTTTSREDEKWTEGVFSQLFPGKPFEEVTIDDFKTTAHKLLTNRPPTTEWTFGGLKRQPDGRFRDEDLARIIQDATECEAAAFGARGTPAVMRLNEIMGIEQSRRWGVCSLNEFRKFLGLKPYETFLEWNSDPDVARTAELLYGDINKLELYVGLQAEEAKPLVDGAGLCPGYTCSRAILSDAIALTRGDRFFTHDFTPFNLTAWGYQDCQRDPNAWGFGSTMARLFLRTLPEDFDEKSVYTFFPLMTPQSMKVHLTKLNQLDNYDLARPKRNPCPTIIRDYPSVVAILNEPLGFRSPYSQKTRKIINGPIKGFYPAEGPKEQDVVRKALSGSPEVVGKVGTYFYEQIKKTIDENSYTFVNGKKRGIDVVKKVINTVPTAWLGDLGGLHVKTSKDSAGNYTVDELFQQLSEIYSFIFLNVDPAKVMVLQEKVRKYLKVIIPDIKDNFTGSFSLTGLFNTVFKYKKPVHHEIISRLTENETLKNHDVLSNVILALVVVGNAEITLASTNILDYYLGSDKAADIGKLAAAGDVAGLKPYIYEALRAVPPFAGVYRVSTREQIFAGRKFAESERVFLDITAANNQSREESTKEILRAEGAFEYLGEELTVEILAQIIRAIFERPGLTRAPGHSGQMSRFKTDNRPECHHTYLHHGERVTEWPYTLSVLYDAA

CCCCC/C=C\C/C=C\CCCCCCCC(=O)O [linoleic acid]
LC-MS/MS of products after triphenylphosphine reduction [1]: Linoleic acid was added to the purified recombinant CcDOX1 and CcDOX2 | KA [2]: 78 ± 9.74 µM
